Data from ChEMBL document CHEMBL6087465, “Design, Synthesis, and Antitumor Activity Evaluation of 2-Phenylthiazole-5-Carboxylic Acid Derivatives Targeting Transactivation Response RNA-Binding Protein 2” (J Med Chem, 2025).
One block for each molecule: values may come before it. The source made the active and inactive calls. The rule behind the calls is not given here.

Assays:
[1] = system: SK-HEP1; assay: Antiproliferative activity against human SK-HEP1 cells cultured as 2D cells assessed as inhibition of cell growth at 10 uM incubated for 72 hrs by CCK-8 assay; type: functional, cell-based
[2] = system: HCCLM3; assay: Antiproliferative activity against human HCCLM3 cells cultured as 2D cells assessed as inhibition of cell growth at 10 uM incubated for 72 hrs by CCK-8 assay; type: functional, cell-based
[3] = system: SK-HEP1; assay: Antiproliferative activity against human SK-HEP1 cells cultured as 3D cells assessed as inhibition of cell growth at 10 uM incubated for 72 hrs by CellTiter-Lumi assay; type: functional, cell-based
[4] = system: HCCLM3; assay: Antiproliferative activity against human HCCLM3 cells cultured as 3D cells assessed as inhibition of cell growth at 10 uM incubated for 72 hrs by CellTiter-Lumi assay; type: functional, cell-based
[5] = system: HCCLM3; assay: Antiproliferative activity against human HCCLM3 cells cultured as 3D cells assessed as inhibition of colony formation at 25 uM incubated for 21 days by 3D soft-agar based microscopic analysis; type: functional, cell-based; settings: time 21.0 day
[6] = system: SK-HEP1; assay: Inhibition of cell migration in human SK-HEP1 cells at 10 uM incubated for 24 hrs by wound healing assay; type: functional, cell-based
[7] = system: HCCLM3; assay: Inhibition of cell migration in human HCCLM3 cells at 10 uM incubated for 24 hrs by wound healing assay; type: functional, cell-based
[8] = system: SK-HEP1; assay: Inhibition of cell migration in human SK-HEP1 cells at 10 uM incubated for 24 hrs by transwell assay; type: functional, cell-based
[9] = system: HCCLM3; assay: Inhibition of cell migration in human HCCLM3 cells at 10 uM incubated for 24 hrs by transwell assay; type: functional, cell-based
[10] = species on record: Homo sapiens; assay: Inhibition of recombinant human TRBP/recombinant human Dicer protein protein interaction at 25 uM by indirect-competition-ELISA
[11] = system: SK-HEP1; assay: Antiproliferative activity against TARBP2-knockout human SK-HEP1 cells cultured as 3D cells assessed as inhibition of cell growth at 25 uM incubated for 72 hrs by CellTiter-Lumi assay; type: functional, cell-based
[12] = system: HCCLM3; assay: Antiproliferative activity against TARBP2-knockout human HCCLM3 cells cultured as 3D cells assessed as inhibition of cell growth at 25 uM incubated for 72 hrs by CellTiter-Lumi assay; type: functional, cell-based
[13] = system: SK-HEP1; assay: Antiproliferative activity against human SK-HEP1 cells cultured as 3D cells assessed as inhibition of cell growth at 25 uM incubated for 72 hrs by CellTiter-Lumi assay; type: functional, cell-based
[14] = system: HCCLM3; assay: Antiproliferative activity against human HCCLM3 cells cultured as 3D cells assessed as inhibition of cell growth at 25 uM incubated for 72 hrs by CellTiter-Lumi assay; type: functional, cell-based
[15] = system: SK-HEP1; assay: Inhibition of cell migration in human SK-HEP1 cells incubated for 24 hrs by transwell assay; type: functional, cell-based
[16] = system: HCCLM3; assay: Inhibition of cell migration in human HCCLM3 cells incubated for 24 hrs by transwell assay; type: functional, cell-based
[17] = system: SK-HEP1; assay: Inhibition of cell migration in TARBP2-knockout human SK-HEP1 cells at 1 to 25 uM incubated for 24 hrs by transwell assay; type: functional, cell-based; settings: dose 1-25 µM
[18] = system: HCCLM3; assay: Inhibition of cell migration in TARBP2-knockout human HCCLM3 cells at 1 to 25 uM incubated for 24 hrs by transwell assay; type: functional, cell-based; settings: dose 1-25 µM
[19] = Inhibition of PI3K/AKT/mTOR signaling pathway in human HCCLM3 cells assessed as downregulation of AKT phosphorylation incubated for 24 hrs by Western blotting analysis; type: cell-based
[20] = Inhibition of PI3K/AKT/mTOR signaling pathway in human HCCLM3 cells assessed as downregulation of mTOR phosphorylation incubated for 24 hrs by Western blotting analysis; type: cell-based
[21] = system: HCCLM3; assay: Antiproliferative activity against human HCCLM3 cells assessed as upregulation of SMAD7 expression at 10 uM by Western blotting analysis; type: functional, cell-based
[22] = system: HCCLM3; assay: Antiproliferative activity against human HCCLM3 cells assessed as downregulation of SMAD2 phosphorylation at 10 uM by Western blotting analysis; type: functional, cell-based
[23] = system: HCCLM3; assay: Antiproliferative activity against human HCCLM3 cells assessed as downregulation of SMAD3 phosphorylation at 10 uM by Western blotting analysis; type: functional, cell-based
[24] = system: HCCLM3; assay: Antiproliferative activity against human HCCLM3 cells assessed as upregulation of SMAD7 expression incubated for 24 hrs by Western blotting analysis; type: functional, cell-based
[25] = system: HCCLM3; assay: Antiproliferative activity against human HCCLM3 cells assessed as downregulation of SMAD2 phosphorylation incubated for 24 hrs by Western blotting analysis; type: functional, cell-based
[26] = system: HCCLM3; assay: Antiproliferative activity against human HCCLM3 cells assessed as downregulation of SMAD3 phosphorylation incubated for 24 hrs by Western blotting analysis; type: functional, cell-based
[27] = Acute toxicity in Kunming mouse assessed as animal death at 100 mg/kg,ip administration measured after 14 days; type: organism-based; settings: in vivo, 336 h, time 14 day
[28] = Acute toxicity in Kunming mouse assessed as body weight loss at 100 mg/kg,ip administration measured after 14 days; type: organism-based; settings: in vivo, 336 h, time 14 day
[29] = Acute toxicity in Kunming mouse assessed as effect on AST level in liver at 100 mg/kg,ip administration measured after 14 days; type: organism-based; settings: in vivo, 336 h, time 14 day
[30] = Acute toxicity in Kunming mouse assessed as effect on ALT level in liver at 100 mg/kg,ip administration measured after 14 days; type: organism-based; settings: in vivo, 336 h, time 14 day
[31] = Acute toxicity in Kunming mouse assessed as effect on ALB level in liver at 100 mg/kg,ip administration measured after 14 days; type: organism-based; settings: in vivo, 336 h, time 14 day
[32] = Acute toxicity in Kunming mouse assessed as effect on total bilirubin level in liver at 100 mg/kg,ip administration measured after 14 days; type: organism-based; settings: in vivo, 336 h, time 14 day
[33] = Acute toxicity in Kunming mouse assessed as effect on direct bilirubin level in liver at 100 mg/kg,ip administration measured after 14 days; type: organism-based; settings: in vivo, 336 h, time 14 day
[34] = Acute toxicity in Kunming mouse assessed as effect on urea level in kidney at 100 mg/kg,ip administration measured after 14 days; type: organism-based; settings: in vivo, 336 h, time 14 day
[35] = Acute toxicity in Kunming mouse assessed as effect on creatinine level in kidney at 100 mg/kg,ip administration measured after 14 days; type: organism-based; settings: in vivo, 336 h, time 14 day
[36] = Acute toxicity in Kunming mouse assessed as effect on uric acid level in kidney at 100 mg/kg,ip administration measured after 14 days; type: organism-based; settings: in vivo, 336 h, time 14 day
[37] = Acute toxicity in Kunming mouse assessed as effect on creatine kinase level in heart at 100 mg/kg,ip administration measured after 14 days; type: organism-based; settings: in vivo, 336 h, time 14 day
[38] = Acute toxicity in Kunming mouse assessed as effect on lactate dehydrogenase level in heart at 100 mg/kg,ip administration measured after 14 days; type: organism-based; settings: in vivo, 336 h, time 14 day
[39] = Acute toxicity in Kunming mouse assessed as pathological change in heart at 100 mg/kg,ip administration measured after 14 days by hematoxylin and eosin staining based microscopic analysis; type: organism-based; settings: in vivo, 336 h, time 14 day
[40] = Acute toxicity in Kunming mouse assessed as pathological change in spleen at 100 mg/kg,ip administration measured after 14 days by hematoxylin and eosin staining based microscopic analysis; type: organism-based; settings: in vivo, 336 h, time 14 day
[41] = Acute toxicity in Kunming mouse assessed as pathological change in lung at 100 mg/kg,ip administration measured after 14 days by hematoxylin and eosin staining based microscopic analysis; type: organism-based; settings: in vivo, 336 h, time 14 day
[42] = Acute toxicity in Kunming mouse assessed as pathological change in kidney at 100 mg/kg,ip administration measured after 14 days by hematoxylin and eosin staining based microscopic analysis; type: organism-based; settings: in vivo, 336 h, time 14 day
[43] = system: HCCLM3; assay: Antitumor activity against human HCCLM3 cells xenografted in BALB/c mouse assessed as inhibition of tumor growth at 50 mg/kg,ip administration measured after 22 days; type: functional, organism-based; settings: time 22.0 day
[44] = Toxicity in BALB/c mouse xenografted with human HCCLM3 cells assessed as body weight loss at 50 mg/kg,ip administration measured after 22 days; type: organism-based; settings: in vivo, 528 h, time 22 day
[45] = Toxicity in BALB/c mouse xenografted with human HCCLM3 cells assessed as change in mental state at 50 mg/kg,ip administration measured after 22 days; type: organism-based; settings: in vivo, 528 h, time 22 day
[46] = Toxicity in BALB/c mouse xenografted with human HCCLM3 cells assessed as pathological change in heart at 50 mg/kg,ip administration measured after 22 days by hematoxylin and eosin staining based microscopic analysis; type: organism-based; settings: in vivo, 528 h, time 22 day
[47] = Toxicity in BALB/c mouse xenografted with human HCCLM3 cells assessed as pathological change in liver at 50 mg/kg,ip administration measured after 22 days by hematoxylin and eosin staining based microscopic analysis; type: organism-based; settings: in vivo, 528 h, time 22 day
[48] = Toxicity in BALB/c mouse xenografted with human HCCLM3 cells assessed as pathological change in spleen at 50 mg/kg,ip administration measured after 22 days by hematoxylin and eosin staining based microscopic analysis; type: organism-based; settings: in vivo, 528 h, time 22 day
[49] = Toxicity in BALB/c mouse xenografted with human HCCLM3 cells assessed as pathological change in lung at 50 mg/kg,ip administration measured after 22 days by hematoxylin and eosin staining based microscopic analysis; type: organism-based; settings: in vivo, 528 h, time 22 day
[50] = Toxicity in BALB/c mouse xenografted with human HCCLM3 cells assessed as pathological change in kidney at 50 mg/kg,ip administration measured after 22 days by hematoxylin and eosin staining based microscopic analysis; type: organism-based; settings: in vivo, 528 h, time 22 day
[51] = Half life in Wistar rat at 100 mg/kg,po administration measured upto 96 hrs by HPLC-UV analysis; settings: in vivo

SMILES: Cc1cc(-c2nc(C)c(C(=O)O)s2)ccc1OCC1CC1
- Activity [1]: inactive
- Activity [2]: inactive

SMILES: Cc1nc(-c2ccc(OCCCF)cc2)sc1C(=O)O
- Activity [1]: inactive
- Activity [2]: inactive
- Activity [3]: Active
- Activity [4]: Active
- Activity [5]: Active
- inhibition [6]: Active
- inhibition [7]: Active
- inhibition [8]: Active
- inhibition [9]: Active

SMILES: Cc1nc(-c2ccc(OCC3CC3)c(Br)c2)sc1C(=O)O
- Activity [1]: inactive
- Activity [2]: inactive

SMILES: COCCOc1ccc(-c2nc(C)c(C(=O)O)s2)cc1
- Activity [1]: inactive
- Activity [2]: inactive
- Activity [3]: Active
- Activity [4]: Active
- Activity [5]: Active
- inhibition [6]: Active
- inhibition [7]: Active
- inhibition [8]: Active
- inhibition [9]: Active
- inhibition [10]: Active
- Activity [11]: inactive
- Activity [12]: inactive
- Activity [13]: Active
- Activity [14]: Active
- inhibition [15]: Dose-dependent-effect
- inhibition [16]: Dose-dependent-effect
- inhibition [17]: inactive
- inhibition [18]: inactive
- inhibition [19]: Dose-dependent-effect
- inhibition [20]: Dose-dependent-effect
- Activity [21]: Time-dependent-effect
- Activity [22]: Time-dependent-effect
- Activity [23]: Time-dependent-effect
- Activity [24]: Dose-dependent-effect
- Activity [25]: Dose-dependent-effect
- Activity [26]: Dose-dependent-effect
- Activity [27]: Non-toxic
- Activity [28]: Non-toxic
- Activity [29]: Non-toxic
- Activity [30]: Non-toxic
- Activity [31]: Non-toxic
- Activity [32]: Non-toxic
- Activity [33]: Non-toxic
- Activity [34]: Non-toxic
- Activity [35]: Non-toxic
- Activity [36]: Non-toxic
- Activity [37]: Non-toxic
- Activity [38]: Non-toxic
- Activity [39]: Non-toxic
- Activity [40]: Non-toxic
- Activity [41]: Non-toxic
- Activity [42]: Non-toxic

- half-life at 96 h [51]: 21.9 h
SMILES: CNC(=O)c1cc(Oc2ccc(NC(=O)Nc3ccc(Cl)c(C(F)(F)F)c3)cc2)ccn1 [SORAFENIB]
- Activity [5]: Active
- Activity [43]: Active
- Activity [44]: Toxic
- Activity [45]: Toxic
- Activity [46]: Non-toxic
- Activity [47]: Non-toxic
- Activity [48]: Non-toxic
- Activity [49]: Non-toxic
- Activity [50]: Non-toxic

SMILES: Cc1nc(-c2ccc(OCC3CCC3)cc2)sc1C(=O)O
- Activity [1]: inactive
- Activity [2]: inactive

SMILES: CCOc1nc(-c2ccc(OCC3CC3)cc2)sc1C(=O)O
- Activity [1]: inactive
- Activity [2]: inactive

SMILES: Cc1nc(-c2ccc(OCC(C)C)cc2)sc1C(=O)O
- Activity [1]: inactive
- Activity [2]: inactive
